Source: patent US8841330B2, “Omega-carboxyaryl substituted diphenyl ureas as raf kinase inhibitors” (Bayer Healthcare LLC, priority 2000, dated 2014)

SMILES | melting point [°C]
COC(=O)c1ccc(Oc2ccc(NC(=O)Nc3ccc(Cl)c(C(F)(F)F)c3)cc2)cn1 [Entry 55, N-(4-chloro-3-(trifluoromethyl)phenyl)-N′-(4-(2-(methoxycarbonyl)-5-pyridyloxy)phenyl)urea] | 228 to 230
CNC(=O)c1cc(Oc2ccc(NC(=O)Nc3ccc(Oc4ccnc(C(=O)NC)c4)cc3)cc2)ccn1 [Entry 103, bis(4-(2-(N-methylcarbamoyl)-4-pyridyloxy)phenyl)urea] | 125 to 130
